According to the NIST ThermoML archive (doi:10.1016/j.fluid.2010.02.010):
± gives the expanded uncertainty stated by the source.

What was measured:
[1] = activity coefficient (dimensionless); of the first substance listed, at infinite dilution; xn = mol fraction of the nth substance listed; details: 101 kPa, Liquid, x1 = 0
[2] = excess molar enthalpy (molar enthalpy of mixing); xn = mol fraction of the nth substance listed; details: 413.15 K, 101 kPa, Liquid, Flow calorimetry
[3] = 101.33 kPa, Liquid, Vibrating tube method

C=CCCCCCC [oct-1-ene] + CCCCCCn1cc[n+](C)c1.O=S(=O)([O-])C(F)(F)F
activity coefficient, [1]
Details | 303.14 K | 303.16 K | 313.15 K | 313.17 K | 323.15 K | 333.14 K | 333.18 K
Chromatography | 15.4 ± 1.1 | – | 15 ± 1 | – | 14.6 ± 1 | 14.3 ± 0.98 | –
dilutor technique | – | 15 ± 0.75 | – | 14.5 ± 0.73 | 14.2 ± 0.71 | – | 13.7 ± 0.69

CCCCCCn1cc[n+](C)c1.O=S(=O)([O-])C(F)(F)F [1-hexyl-3-methylimidazolium trifluoromethanesulfonate] + C=CCCCC
[2]
Details | excess molar enthalpy [kJ/mol]
x2 = 0.0407 | 0.0337 ± 0.0012
x2 = 0.0604 | 0.0488 ± 0.0014
x2 = 0.0797 | 0.0666 ± 0.0018
x2 = 0.0987 | 0.0858 ± 0.0022
x2 = 0.1172 | 0.102 ± 0.0025
x2 = 0.1353 | 0.118 ± 0.0028

CCCCCC [hexane] + CCCCCCCCn1cc[n+](C)c1.O=S(=O)([O-])C(F)(F)F
[1], dilutor technique
Details | activity coefficient
303.15 K | 7.25 ± 0.36
323.16 K | 7.15 ± 0.36
333.18 K | 7.09 ± 0.35

C=CCCCCC [1-heptene] + CCCCn1cc[n+](C)c1.O=S(=O)([O-])C(F)(F)F
activity coefficient, [1]
Details | 303.17 K | 303.45 K | 313.13 K | 313.15 K | 323.14 K | 323.16 K | 333.15 K | 333.16 K
Chromatography | – | 21.8 ± 1.5 | – | 21.3 ± 1.5 | 20.6 ± 1.4 | – | 19.9 ± 1.4 | –
Dilutor technique | 22.1 ± 1.1 | – | 21.2 ± 1.1 | – | – | 20.2 ± 1 | – | 19.7 ± 0.99

C=CCCC [1-pentene] + CCCCCCn1cc[n+](C)c1.O=S(=O)([O-])C(F)(F)F
[1], dilutor technique
Details | activity coefficient
303.18 K | 4.62 ± 0.23
313.15 K | 4.58 ± 0.23
323.16 K | 4.54 ± 0.23
333.15 K | 4.51 ± 0.23

C=CCCCC [hex-1-ene] + CCCCn1cc[n+](C)c1.O=S(=O)([O-])C(F)(F)F
activity coefficient, [1]
Details | 303.17 K | 303.45 K | 313.15 K | 313.36 K | 323.14 K | 323.15 K | 333.14 K | 333.18 K
Chromatography | – | 14.4 ± 0.98 | – | 14 ± 0.96 | 13.5 ± 0.92 | – | 13 ± 0.89 | –
Dilutor technique | 14.3 ± 0.71 | – | 13.8 ± 0.69 | – | – | 13.5 ± 0.67 | – | 12.9 ± 0.65

CCCCn1cc[n+](C)c1.O=S(=O)([O-])C(F)(F)F [1-butyl-3-methylimidazolium trifluoromethanesulfonate] + C=CCCCC
[2]
Details | excess molar enthalpy [kJ/mol]
x2 = 0.0431 | 0.0981 ± 0.0024
x2 = 0.0845 | 0.185 ± 0.0042
x2 = 0.1632 | 0.252 ± 0.0056
x2 = 0.2004 | 0.241 ± 0.0054
x2 = 0.2364 | 0.232 ± 0.0052
x2 = 0.3049 | 0.212 ± 0.0048
x2 = 0.3691 | 0.196 ± 0.0044
x2 = 0.4292 | 0.177 ± 0.004
x2 = 0.5391 | 0.14 ± 0.0033
x2 = 0.637 | 0.113 ± 0.0027
x2 = 0.7247 | 0.086 ± 0.0022
x2 = 0.8404 | 0.0521 ± 0.0015
x2 = 0.9405 | 0.0204 ± 0.0009

CCCCCCC [heptane] + CCCCn1cc[n+](C)c1.O=S(=O)([O-])C(F)(F)F
activity coefficient, [1]
Details | 303.12 K | 303.45 K | 313.15 K | 323.12 K | 323.14 K | 333.15 K | 333.21 K
Chromatography | – | 45 ± 3.1 | 42.4 ± 2.9 | – | 39.8 ± 2.7 | 37 ± 2.5 | –
Dilutor technique | 45 ± 2.2 | – | 42.3 ± 2.1 | 39.8 ± 2 | – | – | 36.9 ± 1.9

CCCCCC [hexane] + CCCCCCn1cc[n+](C)c1.O=S(=O)([O-])C(F)(F)F
[1], dilutor technique
Details | activity coefficient
303.11 K | 12.8 ± 0.64
313.16 K | 11.9 ± 0.6
323.17 K | 11.4 ± 0.57
333.17 K | 10.9 ± 0.55

CCCCCCCC [octane] + CCCCCCn1cc[n+](C)c1.O=S(=O)([O-])C(F)(F)F
activity coefficient, [1]
Details | 303.14 K | 303.16 K | 313.15 K | 313.18 K | 323.15 K | 323.16 K | 333.14 K
Chromatography | 27.2 ± 1.9 | – | 25.8 ± 1.8 | – | 24.8 ± 1.7 | – | 23.8 ± 1.6
dilutor technique | – | 27.1 ± 1.4 | – | 25.5 ± 1.3 | – | 24.6 ± 1.2 | 23.4 ± 1.2

C=CCCCCC [1-heptene] + CCCCCCCCn1cc[n+](C)c1.O=S(=O)([O-])C(F)(F)F
[1], dilutor technique
Details | activity coefficient
303.21 K | 6.11 ± 0.31
313.15 K | 6.03 ± 0.3
323.14 K | 5.97 ± 0.3
333.12 K | 5.89 ± 0.29

CCCCC [pentane] + CCCCn1cc[n+](C)c1.O=S(=O)([O-])C(F)(F)F
[1], Dilutor technique
Details | activity coefficient
313.19 K | 18 ± 0.9
323.16 K | 17.5 ± 0.87
333.22 K | 16.8 ± 0.84

CCCCCCn1cc[n+](C)c1.O=S(=O)([O-])C(F)(F)F [1-hexyl-3-methylimidazolium trifluoromethanesulfonate]
[3]
Details | mass density [kg/m3]
308.16 K | 1231.4 ± 0.2
313.16 K | 1227.6 ± 0.2
318.16 K | 1223.8 ± 0.2
323.16 K | 1220 ± 0.2
328.16 K | 1216.2 ± 0.2
333.16 K | 1212.5 ± 0.2
338.16 K | 1208.7 ± 0.2
343.16 K | 1205 ± 0.2
348.15 K | 1201.3 ± 0.2

C=CCCCC [hex-1-ene] + CCCCCCn1cc[n+](C)c1.O=S(=O)([O-])C(F)(F)F
[1], dilutor technique
Details | activity coefficient
303.18 K | 7.4 ± 0.37
313.15 K | 7.23 ± 0.36
323.16 K | 7.03 ± 0.35
333.15 K | 6.86 ± 0.34

CCCCn1cc[n+](C)c1.O=S(=O)([O-])C(F)(F)F [1-butyl-3-methylimidazolium trifluoromethanesulfonate] + CCCCCC
[2]
Details | excess molar enthalpy [kJ/mol]
x2 = 0.0413 | 0.239 ± 0.0053
x2 = 0.1199 | 0.316 ± 0.007
x2 = 0.1573 | 0.302 ± 0.0067
x2 = 0.1936 | 0.287 ± 0.0064
x2 = 0.2287 | 0.274 ± 0.0061
x2 = 0.2958 | 0.249 ± 0.0056
x2 = 0.359 | 0.228 ± 0.0051
x2 = 0.4186 | 0.206 ± 0.0047
x2 = 0.5283 | 0.173 ± 0.004
x2 = 0.6269 | 0.133 ± 0.0031
x2 = 0.7159 | 0.104 ± 0.0025
x2 = 0.8344 | 0.0619 ± 0.0017
x2 = 0.938 | 0.0286 ± 0.0011
